According to patent US20240301409A1, “Chemically Modified Small Activating RNA” (RACTIGEN THERAPEUTICS, priority 2021, published 2024):

Tested on: T24 cells
Assay: Cellular proliferation assay (CCK8) in T24 cells, alone and combined with Mitomycin C or valrubicin
Assay type: cell-based, human
In short: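 Cells transfected with saRNA RAG1-40-31 (0.1–50 nM) for 24 h, then Mitomycin C or valrubicin (1–10000 nM) added in paired concentrations; single-agent saRNA at 10 nM for 72 h. Viability by CCK8 absorbance at 450 nm after 1 h at 37 °C, as % of blank transfection control.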

RAG1-40-31: saRNA duplex: sense fCfCAACUCAUUCUCCAAG*U*C (SEQ ID NO 16); antisense U*A*fCfUfUGGAGAAfUGAGfUfUGG*fC*A (SEQ ID NO 12) (sense CCAACUCAUUCUCCAAGUC; antisense UACUUGGAGAAUGAGUUGGCA; 2'-F and phosphorothioate modifications; modified_base (1)..(2) (1,2)=2′-fluoro; modified_base (17)..(19) (17,18,19)=phosphorothioate (PS) backbone modification; modified_base (2)..(21) (2,3,19,20,21)=phosphorothioate (PS) backbone modification; modified_base (3)..(20) (3,4,5,12,16,17,20)=2′-fluoro)
Relative proliferation proportion of T24 cells (RAG1-40-31 0.1 nM + MMC 1 nM): 93.6% | Relative proliferation proportion of T24 cells (RAG1-40-31 0.1 nM + MMC 10 nM): 94.5% | Relative proliferation proportion of T24 cells (RAG1-40-31 0.1 nM + MMC 100 nM): 63.3% | Relative proliferation proportion of T24 cells (RAG1-40-31 0.1 nM + MMC 1000 nM): 17.6% | Relative proliferation proportion of T24 cells (RAG1-40-31 0.1 nM + MMC 10000 nM): 5.6% | Relative proliferation proportion of T24 cells (RAG1-40-31 0.1 nM + valrubicin 1 nm): 96.3% | Relative proliferation proportion of T24 cells (RAG1-40-31 0.1 nM + valrubicin 10 nm): 97.8% | Relative proliferation proportion of T24 cells (RAG1-40-31 0.1 nM + valrubicin 100 nm): 93.4% | Relative proliferation proportion of T24 cells (RAG1-40-31 0.1 nM + valrubicin 1000 nm): 59.6% | Relative proliferation proportion of T24 cells (RAG1-40-31 0.1 nM + valrubicin 10000 nm): 18.9% | Relative proliferation proportion of T24 cells (RAG1-40-31 0.1 nM, Control (no MMC)): 97.9% | Relative proliferation proportion of T24 cells (RAG1-40-31 0.1 nM, Control (no valrubicin)): 93.5% | Relative proliferation proportion of T24 cells (RAG1-40-31 0.5 nM + MMC 1 nM): 90.1% | Relative proliferation proportion of T24 cells (RAG1-40-31 0.5 nM + MMC 10 nM): 90.0% | Relative proliferation proportion of T24 cells (RAG1-40-31 0.5 nM + MMC 100 nM): 59.8% | Relative proliferation proportion of T24 cells (RAG1-40-31 0.5 nM + MMC 1000 nM): 16.8% | Relative proliferation proportion of T24 cells (RAG1-40-31 0.5 nM + MMC 10000 nM): 5.5% | Relative proliferation proportion of T24 cells (RAG1-40-31 0.5 nM + valrubicin 1 nm): 91.3% | Relative proliferation proportion of T24 cells (RAG1-40-31 0.5 nM + valrubicin 10 nm): 94.3% | Relative proliferation proportion of T24 cells (RAG1-40-31 0.5 nM + valrubicin 100 nm): 91.4% | Relative proliferation proportion of T24 cells (RAG1-40-31 0.5 nM + valrubicin 1000 nm): 51.8% | Relative proliferation proportion of T24 cells (RAG1-40-31 0.5 nM + valrubicin 10000 nm): 19.5% | Relative proliferation proportion of T24 cells (RAG1-40-31 0.5 nM, Control (no MMC)): 91.7% | Relative proliferation proportion of T24 cells (RAG1-40-31 0.5 nM, Control (no valrubicin)): 84.8% | Relative proliferation proportion of T24 cells (RAG1-40-31 1 nM + MMC 1 nM): 81.9% | Relative proliferation proportion of T24 cells (RAG1-40-31 1 nM + MMC 10 nM): 78.2% | Relative proliferation proportion of T24 cells (RAG1-40-31 1 nM + MMC 100 nM): 55.6% | Relative proliferation proportion of T24 cells (RAG1-40-31 1 nM + MMC 1000 nM): 14.7% | Relative proliferation proportion of T24 cells (RAG1-40-31 1 nM + MMC 10000 nM): 5.4% | Relative proliferation proportion of T24 cells (RAG1-40-31 1 nM + valrubicin 1 nm): 76.0% | Relative proliferation proportion of T24 cells (RAG1-40-31 1 nM + valrubicin 10 nm): 71.3% | Relative proliferation proportion of T24 cells (RAG1-40-31 1 nM + valrubicin 100 nm): 67.6% | Relative proliferation proportion of T24 cells (RAG1-40-31 1 nM + valrubicin 1000 nm): 49.6% | Relative proliferation proportion of T24 cells (RAG1-40-31 1 nM + valrubicin 10000 nm): 16.6% | Relative proliferation proportion of T24 cells (RAG1-40-31 1 nM, Control (no MMC)): 85.9% | Relative proliferation proportion of T24 cells (RAG1-40-31 1 nM, Control (no valrubicin)): 79.7% | Relative proliferation proportion of T24 cells (RAG1-40-31 5 nM + MMC 1 nM): 37.4% | Relative proliferation proportion of T24 cells (RAG1-40-31 5 nM + MMC 10 nM): 36.3% | Relative proliferation proportion of T24 cells (RAG1-40-31 5 nM + MMC 100 nM): 26.0% | Relative proliferation proportion of T24 cells (RAG1-40-31 5 nM + MMC 1000 nM): 7.7% | Relative proliferation proportion of T24 cells (RAG1-40-31 5 nM + MMC 10000 nM): 3.1% | Relative proliferation proportion of T24 cells (RAG1-40-31 5 nM + valrubicin 1 nm): 37.2% | Relative proliferation proportion of T24 cells (RAG1-40-31 5 nM + valrubicin 10 nm): 33.3% | Relative proliferation proportion of T24 cells (RAG1-40-31 5 nM + valrubicin 100 nm): 42.1% | Relative proliferation proportion of T24 cells (RAG1-40-31 5 nM + valrubicin 1000 nm): 25.7% | Relative proliferation proportion of T24 cells (RAG1-40-31 5 nM + valrubicin 10000 nm): 8.0% | Relative proliferation proportion of T24 cells (RAG1-40-31 5 nM, Control (no MMC)): 42.1% | Relative proliferation proportion of T24 cells (RAG1-40-31 5 nM, Control (no valrubicin)): 38.5% | Relative proliferation proportion of T24 cells (RAG1-40-31 10 nM + MMC 1 nM): 19.8% | Relative proliferation proportion of T24 cells (RAG1-40-31 10 nM + MMC 10 nM): 27.0% | Relative proliferation proportion of T24 cells (RAG1-40-31 10 nM + MMC 100 nM): 16.7% | Relative proliferation proportion of T24 cells (RAG1-40-31 10 nM + MMC 1000 nM): 5.3% | Relative proliferation proportion of T24 cells (RAG1-40-31 10 nM + MMC 10000 nM): 2.5% | Relative proliferation proportion of T24 cells (RAG1-40-31 10 nM + valrubicin 1 nm): 27.2% | Relative proliferation proportion of T24 cells (RAG1-40-31 10 nM + valrubicin 10 nm): 23.3% | Relative proliferation proportion of T24 cells (RAG1-40-31 10 nM + valrubicin 100 nm): 26.9% | Relative proliferation proportion of T24 cells (RAG1-40-31 10 nM + valrubicin 1000 nm): 21.7% | Relative proliferation proportion of T24 cells (RAG1-40-31 10 nM + valrubicin 10000 nm): 5.1% | Relative proliferation proportion of T24 cells (RAG1-40-31 10 nM, Control (no MMC)): 22.0% | Relative proliferation proportion of T24 cells (RAG1-40-31 10 nM, Control (no valrubicin)): 23.9% | Relative proliferation proportion of T24 cells (RAG1-40-31 25 nM + MMC 1 nM): 15.4% | Relative proliferation proportion of T24 cells (RAG1-40-31 25 nM + MMC 10 nM): 20.9% | Relative proliferation proportion of T24 cells (RAG1-40-31 25 nM + MMC 100 nM): 12.4% | Relative proliferation proportion of T24 cells (RAG1-40-31 25 nM + MMC 1000 nM): 4.1% | Relative proliferation proportion of T24 cells (RAG1-40-31 25 nM + MMC 10000 nM): 1.9% | Relative proliferation proportion of T24 cells (RAG1-40-31 25 nM + valrubicin 1 nm): 16.5% | Relative proliferation proportion of T24 cells (RAG1-40-31 25 nM + valrubicin 10 nm): 20.4% | Relative proliferation proportion of T24 cells (RAG1-40-31 25 nM + valrubicin 100 nm): 19.5% | Relative proliferation proportion of T24 cells (RAG1-40-31 25 nM + valrubicin 1000 nm): 13.2% | Relative proliferation proportion of T24 cells (RAG1-40-31 25 nM + valrubicin 10000 nm): 3.4% | Relative proliferation proportion of T24 cells (RAG1-40-31 25 nM, Control (no MMC)): 13.6% | Relative proliferation proportion of T24 cells (RAG1-40-31 25 nM, Control (no valrubicin)): 15.1% | Relative proliferation proportion of T24 cells (RAG1-40-31 50 nM + MMC 1 nM): 20.1% | Relative proliferation proportion of T24 cells (RAG1-40-31 50 nM + MMC 10 nM): 19.8% | Relative proliferation proportion of T24 cells (RAG1-40-31 50 nM + MMC 100 nM): 10.8% | Relative proliferation proportion of T24 cells (RAG1-40-31 50 nM + MMC 1000 nM): 4.2% | Relative proliferation proportion of T24 cells (RAG1-40-31 50 nM + MMC 10000 nM): 2.1% | Relative proliferation proportion of T24 cells (RAG1-40-31 50 nM + valrubicin 1 nm): 18.4% | Relative proliferation proportion of T24 cells (RAG1-40-31 50 nM + valrubicin 10 nm): 18.8% | Relative proliferation proportion of T24 cells (RAG1-40-31 50 nM + valrubicin 100 nm): 18.7%
